Like-named read-outs stand apart in the source and are kept apart here.
Assays:
Format in all cases: cell-based
[1] = test system: SR (NPM-ALK) cells; experiment: Growth inhibition IC50 in ALCL SR cells (CCK8/WST, 72 hours); conditions: 72 h, SR cells, WST; Brigatinib-based PROTAD molecules (Table 3)
[2] = test system: SW48 cell line (EGFR G719S); experiment: Growth inhibition IC50 in EGFR G719S colorectal cancer cell line SW48; conditions: Homo sapiens, CTG, n = 2, read-out: Half Inhibitory Concentration (IC50) Mean
[3] = test system: MOLM13 cells (FLT3-ITD); experiment: Growth inhibition IC50 in FLT3-ITD AML cell line MOLM13; conditions: Homo sapiens, MOLM-13; MOLM13 cells, n = 2, reagent CTG; read-out: Half Inhibitory Concentration (IC50) Mean
[4] = test system: PC9Brc1 cells; experiment: Colony formation assay in PC9Brc1 cells; conditions: PC9 Brc1 cells
Description: (§1) Cell were digested to become single cell suspension. Cells were seeded in the intensity of 250 cells/well in 12 well plate. Treated cells at the concentration of 100, 250, 500 nM. Fixed cells 2-3 weeks after and stained cells with crystyl violate.
(§2) ALK PROTAD compound SIAIS1210117 and its negative control epimer SIAIS219050 were used.

[5] = test system: PC9Brc1 (EGFR, exon 19 del+T790M) cells; experiment: Growth inhibition IC50 in EGFR mutant lung cancer PC9Brc1 cells; conditions: CTB, n ≥ 3, read-out: Half Inhibitory Concentration (IC50) Mean
[6] = target: T1, Ba/F3 (EML4-ALK/C1156Y) (Homo sapiens, UniProt Q9UM73, C1156Y, cells depend on it); experiment: Growth inhibition IC50 in Ba/F3 cells expressing EML4-ALK C1156Y
T1 construct: Q9HC35 (Echinoderm microtubule-associated protein-like 4)

[7] = test system: H2228 cells (EML4-ALK); experiment: Colony formation assay in H2228 cells; conditions: about 2 weeks
Description: as §1
In order to see the effect of ALK PROTAD compounds on the colony formation ability of cancer cells, EML4-ALK mutant lung cancer cells H2228 were firstly seeded in 12 well plate at the density of 200 cells per well. Cells were treated with different ALK PROTAD compounds at different concentration for about 2 weeks.

[8] = target: T2, Ba/F3 (EML4-ALK/L1196M) (Homo sapiens, UniProt Q9UM73, L1196M, cells depend on it); experiment: Growth inhibition IC50 in Ba/F3 cells expressing EML4-ALK L1196M
T2 construct: Q9HC35 (Echinoderm microtubule-associated protein-like 4)

[9] = target: T3, ALK protein in SR (NPM-ALK) cells (Homo sapiens, UniProt Q9UM73); experiment: Western blot of ALK protein level (degradation, DC50), ALK phosphorylation and downstream signaling in SR cells
T3 construct: NPM (nucleophosmin, NPM1, P06748) fusion partner; host or cells: SR (ALCL) cells; the other entry of the earlier key: NPM1 (P06748, Nucleophosmin)

[10] = test system: PC9 (EGFR, exon 19 del) cells; experiment: Growth inhibition IC50 in EGFR mutant lung adenocarcinoma PC9 cells; conditions: Homo sapiens, PC-9; PC9 cells, CTB, n ≥ 3; read-out: Half Inhibitory Concentration (IC50) Mean
[11] = test system: U118MG cells (FIG-ROS1 gene fusion); experiment: Growth inhibition IC50 in ROS1 mutant glioblastoma cell line U118MG (72 hours); conditions: Homo sapiens, U-118-MG, U118MG cells, 72 hours
[12] = test system: PC9 cells; experiment: Colony formation assay in PC9 cells
Description: as §1, §2

[13] = test system: NCI-H2228 (EML4-ALK, V3) cells; experiment: Growth inhibition IC50 in lung adenocarcinoma H2228 cells (WST); conditions: Homo sapiens, WST (Table 3)
Description: Experiments were repeated at least three times.
Besides above, we also tested the dosage-dependent effects on the growth inhibition in H2228 cells. […] (Table 3).

[14] = target: T4, ALK protein in SR cells (Homo sapiens, UniProt Q9UM73); experiment: Block of ALK degradation by proteosome inhibitors MG132 and MLN4924 in SR cells
T4 construct: NPM (nucleophosmin, NPM1, P06748) fusion partner; host or cells: SR (ALCL) cells; the other entry of the earlier key: NPM1 (P06748, Nucleophosmin)
Description: To further validate the degradation effect act through proteosome mediated pathway, we also treated cells with two different proteosome inhibitors MG132 and MLN4924 to block protein degradation (FIG. 16).

[15] = target: T5, Ba/F3 (EML4-ALK/WT) (Homo sapiens, UniProt Q9UM73); experiment: Growth inhibition IC50 in Ba/F3 cells expressing EML4-ALK wild type
T5 construct: Q9HC35 (Echinoderm microtubule-associated protein-like 4)

IC50 [2]: 1360 nM
IC50 [3]: 345 nM
IC50 [5]: 460 nM
GI50 [6]: 120 nM
GI50 [8]: 170 nM
DC50 ([9]; ALK protein degradation in SR cells): 0.5 to 10 nM
ALK protein degradation within a time course ([9]; SR cells, 100 nM, 4 hours (SIAIS1210117), up to 24 hours (epimer)): significant ALK protein degradation
IC50 [10]: 106 nM
IC50 ([11]; n = 2, reagent CTG, read-out: Half Inhibitory Concentration (IC50) Mean): 920 nM
IC50 ([11]; read-out: IC50): ~920 nM
IC50 [13]: 30.3 nM
reduction of ALK protein level and its block by MG132 and MLN4924 [14]: able to be blocked
GI50 [15]: 123 nM
SMILES: COc1cc(N2CCC(NC(=O)CCCCCCCCCC(=O)N[C@H](C(=O)N3C[C@H](O)C[C@H]3C(=O)NCc3ccc(-c4scnc4C)cc3)C(C)(C)C)CC2)ccc1Nc1ncc(Cl)c(Nc2ccccc2P(C)(C)=O)n1 [SIAIS1210117, N1-(1-(4-((5-chloro-4-((2-(dimethylphosphoryl)phenyl)amino)pyrimidin-2-yl)amino)-3-methoxyphenyl)piperidin-4-yl)-N11-((S)-1-((2S,4R)-4-hydroxy-2-((4-(4-methylthiazol-5-yl)benzyl)carbamoyl)pyrrolidin-1-yl)-3,3-dimethyl-1-oxobutan-2-yl)undecanediamide]
IC50 [1]: 1.7 ± 1 nM
colony formation [4]: able to inhibit
colony formation [7]: dramatically inhibited
colony formation [12]: able to inhibit

Source: patent US11771709B2, “ALK protein degradation agent and anti-tumor application thereof” (ShanghaiTech University, priority 2017, dated 2023)
